Literature values, collected in patent US6433221B1 (RPC Inc., priority 1998, dated 2002).
Where two headings read alike, the source gives them in different places.

Key:
[1] = cyclohexanone in water; for mol % H2O: balance
[2] = water in cyclohexanone; for mol % CHxO: balance

## O=C1CCCCC1 [Cyclohexanone]
[1]; 20 °C
  mol % CHxO: 1.98% mol %
  wt % CHxO: 10.00% wt %
  mol % H2O: 98.02% mol %
[1]; 25 °C
  mol % CHxO: 1.85% mol %
  wt % CHxO: 9.39% wt %
  mol % H2O: 98.15% mol %
[1]; 30 °C
  mol % CHxO: 1.73% mol %
  wt % CHxO: 8.83% wt %
  mol % H2O: 98.27% mol %
[1]; 50 °C
  mol % CHxO: 1.43% mol %
  wt % CHxO: 7.39% wt %
  mol % H2O: 98.57% mol %
[1]; 70 °C
  mol % CHxO: 1.34% mol %
  wt % CHxO: 6.95% wt %
  mol % H2O: 98.66% mol %
[1]; 90 °C
  mol % CHxO: 1.44% mol %
  wt % CHxO: 7.44% wt %
  mol % H2O: 98.56% mol %

## O [Water]
[2]; 20 °C
  mol % H2O: 25.1% mol %
  wt % H2O: 5.7% wt %
  mol % CHxO: 74.9% mol %
[2]; 20 °C, listed as water
  wt % H2O: 5.7 wt %
[2]; 25 °C
  mol % H2O: 25.6% mol %
  wt % H2O: 5.9% wt %
  mol % CHxO: 74.4% mol %
[2]; 30 °C
  mol % H2O: 26.1% mol %
  wt % H2O: 6.0% wt %
  mol % CHxO: 73.9% mol %
[2]; 50 °C
  mol % H2O: 28.7% mol %
  wt % H2O: 6.8% wt %
  mol % CHxO: 71.3% mol %
[2]; 70 °C
  mol % H2O: 32.6% mol %
  wt % H2O: 8.1% wt %
  mol % CHxO: 67.4% mol %
[2]; 90 °C
  mol % H2O: 38.5% mol %
  wt % H2O: 10.2% wt %
  mol % CHxO: 61.5% mol %
